pIC50: −log10 of the molar value.
Experiments:
[1] = target: PI3K (p110β/p85α) (h) (Homo sapiens (Human), UniProt P42338); experiment: PI3K (p110β/p85α) (h) non-radioactive HTRF kinase assay; format: biochemical
Procedure: (§1) PI3K (p110β/p85α) (h) is incubated in assay buffer containing 10 μM phosphatidylinositol-4,5-bisphosphate and MgATP (concentration as required). The reaction is initiated by the addition of the MgATP mix. After incubation for 30 minutes at room temperature, the reaction is stopped by the addition of stop solution containing EDTA and biotinylated phosphatidylinositol-3,4,5-trisphosphate. Finally, detection buffer is added, which contains europium-labelled anti-GST monoclonal antibody, GST-tagged GRP1 PH domain and streptavidin-allophycocyanin. The plate is then read in timeresolved fluorescence mode and the homogenous time-resolved fluorescence (HTRF) signal is determined according to the formula HTRF=10000×(Em665 nm/Em620 nm).
(§2) The kinase assays described herein were performed at Millipore UK Ltd, Dundee Technology Park, Dundee DD2 1SW, UK.

[2] = tested on: PI3K-α (SKOV3); experiment: p-AKT HTRF assay, PI3K-α in SKOV3 cells; format: cell-based; conditions: Homo sapiens, SK-OV-3
Procedure: (§3) Cells were incubated at 37° C. in a 5% CO2 atmosphere overnight. […] Medium was then aspirated and 50 μL/well of lysis buffer was added. Plates were shaked for 45 minutes at room temperature and then 16 ul/well of lysate was transferred to 384-well plate. 4 ul/well of premixed antibody was added to the wells. The plate was centrifuged at 1000 rpm at RT for 1 minute and then incubated for 4 hours at 22° C., and Phospho-AKT (ser473) Kit was used for detection.

[3] = tested on: WSU-NHL; experiment: Cell proliferation assay (CTG), WSU-NHL; format: cell-based; conditions: Homo sapiens, 72 h
Procedure: (§4) • 1. Harvest cells during the logarithmic growth period and count cell number using Count-star. • 2. Adjust cell concentrations to […] with respective culture medium. • 3. Add 90 μL cell suspensions to 96-well plates with the final cell density of 1×10^4 cells/well. (cell concentration will be adjusted according to the data base or density optimization assay.) • 4. The next day, prepare 10× solution (Top working concentration: 10 μM of test article in media with 3.16-fold serial dilutions to achieve 9 dose levels). • 5. Dispense 10 μL drug solution of both test article and reference control in each well (duplicate for each drug concentration) of the plate.

[4] = tested on: PI3K-β (786-O); experiment: p-AKT HTRF assay, PI3K-β in 786-O cells; format: cell-based; conditions: Homo sapiens, 786-0
Procedure: as §3

[5] = target: PI3K (p110α/p85α) (h) (Homo sapiens (Human), UniProt P42336); experiment: PI3K (p110α/p85α) (h) non-radioactive HTRF kinase assay; format: biochemical
Procedure: as §1, with “(p110α/p85α)” for “(p110β/p85α)”, “phosphatidylinositol 4,5-bisphosphate” for “phosphatidylinositol-4,5-bisphosphate”, “ATP solution.” for “MgATP mix.”, “streptavidin allophycocyanin.” for “streptavidin-allophycocyanin.”
as §2

[6] = tested on: PI3K-δ (RAJI); experiment: p-AKT HTRF assay, PI3K-δ in RAJI cells stimulated with anti-IgM; format: cell-based; conditions: anti-human IgM stimulation
Procedure: as §3

[7] = Compound stability in human liver microsomes; format: in vitro ADME; conditions: pH 7.4
Outline: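 Compounds (5 μM, 0.05% DMSO) incubated in duplicate with liver microsomes (0.5 mg protein/mL) and 1.0 mM NADPH in 100 mM phosphate buffer pH 7.4 at 37 °C, sampled 0–60 min. Remaining compound measured by LC/MS/MS, expressed as percent of zero-time control; denatured-microsome and dextromethorphan controls included.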

[8] = target: PI3K (p110δ/p85α) (h) (Homo sapiens (Human), UniProt O00329); experiment: PI3K (p110δ/p85α) (h) non-radioactive HTRF kinase assay; format: biochemical
Procedure: as §1, with “(p110δ/p85α)” for “(p110β/p85α)”, “phosphatidylinositol-4, 5-bisphosphate” for “phosphatidylinositol-4,5-bisphosphate”
as §2

[9] = tested on: SU-DHL-10; experiment: Cell proliferation assay (CTG), SU-DHL-10; format: cell-based; conditions: Homo sapiens, SU-DHL10, 72 h
Procedure: as §4

[10] = target: hERG channels (Homo sapiens (Human), UniProt Q12809); experiment: hERG assay, automated QPatch procedure; format: cell-based
Source text: Only stable cells with recording parameters above threshold were allowed to enter the drug application procedure.

Chain of PI3K (p110β/p85α) (h) (P42338 whole entry, the tested form may be a part): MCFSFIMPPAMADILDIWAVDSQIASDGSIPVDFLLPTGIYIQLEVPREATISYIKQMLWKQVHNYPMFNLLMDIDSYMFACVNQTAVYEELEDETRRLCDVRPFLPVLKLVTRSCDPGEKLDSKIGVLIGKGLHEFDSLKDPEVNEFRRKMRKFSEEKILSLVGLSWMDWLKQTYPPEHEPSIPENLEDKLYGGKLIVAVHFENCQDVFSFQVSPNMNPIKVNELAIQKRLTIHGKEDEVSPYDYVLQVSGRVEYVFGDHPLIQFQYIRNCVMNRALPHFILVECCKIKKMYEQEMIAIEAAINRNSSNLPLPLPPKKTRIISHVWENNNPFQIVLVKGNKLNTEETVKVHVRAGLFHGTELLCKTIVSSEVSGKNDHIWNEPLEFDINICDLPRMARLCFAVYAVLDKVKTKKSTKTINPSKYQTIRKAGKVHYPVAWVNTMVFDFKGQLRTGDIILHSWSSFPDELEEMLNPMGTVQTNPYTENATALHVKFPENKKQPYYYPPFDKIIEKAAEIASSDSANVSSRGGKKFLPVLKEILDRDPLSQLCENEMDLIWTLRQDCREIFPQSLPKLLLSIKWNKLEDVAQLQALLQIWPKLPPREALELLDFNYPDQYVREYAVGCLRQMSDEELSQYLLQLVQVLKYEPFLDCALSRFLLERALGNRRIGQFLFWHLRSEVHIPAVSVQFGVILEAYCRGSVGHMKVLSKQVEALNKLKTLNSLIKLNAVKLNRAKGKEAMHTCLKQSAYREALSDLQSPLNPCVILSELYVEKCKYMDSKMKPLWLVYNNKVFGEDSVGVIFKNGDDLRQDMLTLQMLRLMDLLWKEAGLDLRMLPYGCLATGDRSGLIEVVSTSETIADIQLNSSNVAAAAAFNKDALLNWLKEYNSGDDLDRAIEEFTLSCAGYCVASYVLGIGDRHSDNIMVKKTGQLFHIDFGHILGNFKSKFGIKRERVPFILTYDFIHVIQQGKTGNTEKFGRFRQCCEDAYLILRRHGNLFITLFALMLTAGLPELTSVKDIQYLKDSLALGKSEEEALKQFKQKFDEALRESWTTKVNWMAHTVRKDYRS
Chain of PI3K (p110β/p85α) (h) (P27986 whole entry partner, the tested form may be a part): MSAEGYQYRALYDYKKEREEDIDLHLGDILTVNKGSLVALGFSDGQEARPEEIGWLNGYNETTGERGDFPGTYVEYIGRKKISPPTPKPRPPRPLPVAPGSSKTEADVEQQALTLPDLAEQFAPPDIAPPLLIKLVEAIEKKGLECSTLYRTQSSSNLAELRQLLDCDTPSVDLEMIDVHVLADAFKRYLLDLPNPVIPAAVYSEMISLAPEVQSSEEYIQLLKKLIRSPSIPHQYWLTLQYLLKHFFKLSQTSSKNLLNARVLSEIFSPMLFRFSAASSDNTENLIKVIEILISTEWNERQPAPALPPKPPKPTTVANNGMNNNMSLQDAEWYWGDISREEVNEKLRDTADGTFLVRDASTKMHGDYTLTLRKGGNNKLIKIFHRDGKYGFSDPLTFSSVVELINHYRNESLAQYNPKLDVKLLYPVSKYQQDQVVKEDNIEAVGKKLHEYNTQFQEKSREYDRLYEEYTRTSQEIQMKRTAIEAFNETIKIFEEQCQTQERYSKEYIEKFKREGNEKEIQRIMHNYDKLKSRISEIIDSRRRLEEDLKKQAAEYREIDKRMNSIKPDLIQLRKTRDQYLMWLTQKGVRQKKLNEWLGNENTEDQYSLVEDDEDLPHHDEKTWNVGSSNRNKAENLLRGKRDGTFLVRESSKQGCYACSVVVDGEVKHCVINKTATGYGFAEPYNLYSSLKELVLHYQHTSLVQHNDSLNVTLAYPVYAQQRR
Chain of PI3K (p110α/p85α) (h) (P42336 whole entry): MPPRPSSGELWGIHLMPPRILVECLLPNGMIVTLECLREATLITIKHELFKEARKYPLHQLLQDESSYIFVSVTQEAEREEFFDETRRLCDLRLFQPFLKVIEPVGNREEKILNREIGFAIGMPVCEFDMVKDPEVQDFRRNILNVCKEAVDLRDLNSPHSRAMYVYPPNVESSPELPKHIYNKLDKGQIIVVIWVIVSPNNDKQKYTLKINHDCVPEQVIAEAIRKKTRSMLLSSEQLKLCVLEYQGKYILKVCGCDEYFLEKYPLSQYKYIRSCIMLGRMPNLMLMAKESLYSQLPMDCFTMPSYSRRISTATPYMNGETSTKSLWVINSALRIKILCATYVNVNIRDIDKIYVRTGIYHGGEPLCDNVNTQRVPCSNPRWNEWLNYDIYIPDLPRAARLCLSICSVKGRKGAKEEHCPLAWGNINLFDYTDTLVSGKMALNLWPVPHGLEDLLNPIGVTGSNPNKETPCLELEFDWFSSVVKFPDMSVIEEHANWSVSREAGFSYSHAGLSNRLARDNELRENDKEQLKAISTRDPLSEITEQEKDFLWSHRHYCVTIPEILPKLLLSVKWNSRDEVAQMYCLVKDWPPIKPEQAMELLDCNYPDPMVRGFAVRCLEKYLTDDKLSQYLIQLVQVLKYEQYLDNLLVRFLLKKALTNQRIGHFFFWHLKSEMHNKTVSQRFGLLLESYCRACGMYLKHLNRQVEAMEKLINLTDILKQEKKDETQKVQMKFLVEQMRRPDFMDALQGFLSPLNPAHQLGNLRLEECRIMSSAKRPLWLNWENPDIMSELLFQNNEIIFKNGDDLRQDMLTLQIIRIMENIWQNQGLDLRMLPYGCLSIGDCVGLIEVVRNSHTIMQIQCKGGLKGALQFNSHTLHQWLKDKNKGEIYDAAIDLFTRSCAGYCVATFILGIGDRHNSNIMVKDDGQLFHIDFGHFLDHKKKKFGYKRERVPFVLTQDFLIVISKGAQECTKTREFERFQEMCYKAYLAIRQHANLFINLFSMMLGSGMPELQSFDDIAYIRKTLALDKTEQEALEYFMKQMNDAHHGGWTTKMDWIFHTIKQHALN
Chain of PI3K (p110α/p85α) (h) (P27986 whole entry partner): as the sequence (P27986 whole entry partner, the tested form may be a part) above
Chain of PI3K (p110δ/p85α) (h) (O00329 whole entry): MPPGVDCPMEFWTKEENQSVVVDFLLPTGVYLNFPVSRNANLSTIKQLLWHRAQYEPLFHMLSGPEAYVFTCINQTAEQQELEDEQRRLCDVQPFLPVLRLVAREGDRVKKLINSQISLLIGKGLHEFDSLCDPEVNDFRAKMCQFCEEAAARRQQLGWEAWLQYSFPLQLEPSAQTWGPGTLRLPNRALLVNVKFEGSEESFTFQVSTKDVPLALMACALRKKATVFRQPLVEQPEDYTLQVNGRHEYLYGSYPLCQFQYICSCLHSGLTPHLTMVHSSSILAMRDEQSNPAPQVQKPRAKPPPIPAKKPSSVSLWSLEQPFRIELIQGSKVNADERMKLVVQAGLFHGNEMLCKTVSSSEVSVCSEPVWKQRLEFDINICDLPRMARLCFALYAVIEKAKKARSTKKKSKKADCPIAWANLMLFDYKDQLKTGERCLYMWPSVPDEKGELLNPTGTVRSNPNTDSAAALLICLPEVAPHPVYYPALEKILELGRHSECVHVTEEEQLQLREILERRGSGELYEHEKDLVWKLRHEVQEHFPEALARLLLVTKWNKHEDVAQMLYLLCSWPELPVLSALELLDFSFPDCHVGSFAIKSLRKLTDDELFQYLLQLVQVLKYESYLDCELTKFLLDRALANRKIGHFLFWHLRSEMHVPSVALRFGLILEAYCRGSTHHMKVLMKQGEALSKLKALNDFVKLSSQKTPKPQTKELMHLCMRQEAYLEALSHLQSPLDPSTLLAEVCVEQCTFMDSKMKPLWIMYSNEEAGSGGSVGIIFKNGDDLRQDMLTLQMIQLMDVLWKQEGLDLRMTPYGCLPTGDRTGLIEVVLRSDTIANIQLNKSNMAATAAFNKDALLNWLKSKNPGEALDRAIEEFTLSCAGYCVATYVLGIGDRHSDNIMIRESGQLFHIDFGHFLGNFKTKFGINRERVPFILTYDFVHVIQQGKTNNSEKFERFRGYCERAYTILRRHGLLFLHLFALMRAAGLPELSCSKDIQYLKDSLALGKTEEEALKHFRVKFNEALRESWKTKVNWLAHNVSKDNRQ
Chain of PI3K (p110δ/p85α) (h) (P27986 whole entry partner): as the sequence (P27986 whole entry partner, the tested form may be a part) above

Cc1noc(-c2c(N)ncnc2N[C@@H](C)c2nc3cccc(C#CCO)c3c(=O)n2-c2ccccc2)n1 [Example 34, (S)-2-(1-((6-amino-5-(3-methyl-1,2,4-oxadiazol-5-yl)pyrimidin-4-yl)amino)ethyl)-5-(3-hydroxyprop-1-yn-1-yl)-3-phenylquinazolin-4(3H)-one]
pIC50 [1]: 6.80 | pIC50 [2]: 5.58 | pIC50 [3]: 7.31 | pIC50 [4]: 7.15 | pIC50 [5]: 6.11 | pIC50 [6]: 9.19 | CLint scaled at 5 μM ([7]; liver microsomes, in vivo CLint extrapolated from human liver microsome incubation): 36.9 mL/min/kg | half-life at 5 μM ([7]; human liver microsomes 0.5 mg protein/mL, compound 5 μM, NADPH, 37° C., read-out: Human T1/2): 47.1 min | pIC50 [8]: 8.40 | pIC50 [9]: 6.52 | pIC50 [10]: < 4.52

From patent US10751339B2, “Substituted aminopyrimidine compounds and methods of use” (SUNSHINE LAKE PHARMA CO., LTD., priority 2018, dated 2020)
